Reference: US10150945B2, “Cell culture device and manufacturing method therof” (JNC CORPORATION, priority 2004, dated 2018)

System: A549 cells (human lung cancer cells)
Protocol: The cytotoxicity of ε-polylysines, the coating material used in the invention, to A549 cells (human lung cancer cells, obtained from ATCC) was evaluated. The cytotoxicity to ε-polylysine hydrochloride (Chisso Corp.) was compared with that to α-polylysine hydrobromide (Wako Pure Chemical, average molecular weight 15,000).
A549 cells were seeded on a 96-well microplate at a density of 1×10^4 cells/well. After culturing overnight at 37° C. under 5% CO2 using DME medium (containing 10% bovine embryonic serum), the medium was removed with an aspirator, and 40 μL each of fresh medium 1.25 times more concentrated as standard was added to each well. Finally 10 μL each of a polylysine salt solution that would eventually attain the specified concentration, and cultured at 37° C. for 3 hours.
After the 3-hour culture, the medium was removed again by an aspirator, 100 μL/well of fresh medium was added, and culture continued for 46 hours. The medium was still once more replaced by 110 μL of fresh medium, 10 μL each of Cell Counting Kit-8 (Dojindo Laboratories) was added and continued to be cultured for 2 hours at 37° C. for color reaction. A plate reader (Thermo Labsystems Multiskan Ascent BIF) was used to determine the absorbance at 450 nm (with 650 nm as a reference) and calculate the viability of the cells.

Substance: α-polylysine hydrobromide
- viability of the cells (FIG. 5): no difference
